Values of other authors, collected in US20040053283A1, “Gene 4” (priority 2000, published 2004).

Experiments:
[1] = system: tissue culture model of cerebral ischemia
[2] = system: rat stroke model (middle ear cerebral artery occlusion); settings: in vivo

O=C(O)CCC(CP(=O)(O)O)C(=O)O (stereo not shown) [2-PNPA, 2-(phosphonomethyl)pentanedioic acid]
protection from cellular injury ([1]; 10 μM, tissue culture model of cerebral ischemia): 85% | protective effect ([1]; even one hour after the ischemia): significant | neuronal protection ([2]; rat stroke model (middle ear cerebral artery occlusion)): high degree of neuronal protection | tolerability ([2]; rat stroke model, at levels that produced a high degree of neuronal protection): well tolerated
